# EP0804408B1, “NOVEL 4-SUBSTITUTED 2,6-DI-TERT-BUTYLPHENOL COMPOUNDS, PHARMACEUTICAL COMPOSITIONS CONTAINING SAME AND PREPARATION METHOD THEREFOR” (priority 1994, dated 1996)
# Test system: macrophages de lignée RAW264.7
# Experiment: Toxicity test on RAW264.7 macrophages (crystal violet and neutral red staining)
# Assay type: cell-based, murins
# Conditions: for DO/ml moyenne sur 4 puis ± écart type / Pourcentage de survie par rapport au témoin cellules en milieu seul: 24 h; for hautement toxique jusqu'à: final conclusion
# Description: La toxicité de AVF1 pour les macrophages de lignée RAW264.7 (ATCC TIB 71) utilisés pour le test iNOS a été déterminée dans l'expérience préliminaire suivante :
# Les macrophages de lignée RAW264.7 ont été distribués dans des séries de 4 puits dans une plaque à 96 puits à raison de 1,5 x 10^5/100 µl/ml dans du milieu de culture (D-NEM sans rouge de phénol, Gibco) additionné de 0,2 % d'antibiotique, 1% de L-glutamine et 5% de sérum de veau foetal décomplémenté (produits pour celuture cellulaire Eurobio).
# Après 18 heures, différentes concentrations de raison […] de AVF1 ont été ajoutées sous 100 µl de façon à obtenir les concentrations finales de 10^0 à 10^-10%. Après 24 heures de culture supplémentaire, les cellules ont été observées au microscope et colorées selon deux techniques différentes permettant d'obtenir un pourcentage respectivement de cellules adhérentes au plastique (coloration au violet cristal) et de cellules vivantes (coloration au rouge neutre) : • Dans la première technique, les cellules sont lavées avec du PBS + Ca^2+ + Mg^2+ (Gibco) afin d'éliminer les éventuelles cellules mortes flottantes et de maintenir les cellules vivantes sur le plastique. Le colorant (1% de violet cristal, R.A.L. 20% de méthanol, Merck) est ajouté sous 50 µl/puits et laissé 20 minutes à température ambiante. Après plusieurs lavages doux en PBS + Ca^2+ + Mg^2+ , les plaques sont séchées à 37°C et 100 µl de SDS (Sigma, 1% en eau distillée) sont ajoutés par puits. La plaque est laissée 1 heure à température ambiante à l'abri de la lumière pour permettre la dissolution complète du lysat cellulaire. La plaque est ensuite lue au lecteur ELISA (Labsystems) à 550 nm après 15 secondes d'agitation. Le blanc de densité optique (OD) est fait sur une rangée de 8 cupules n'ayant reçu que 50 µl de la solution de violet cristal puis ayant été traitées comme les autres. • Dans la seconde technique, les cellules reçoivent 50 µl de rouge neutre à 0,3% (R.A.L.) qui est pinocyté par les macrophages vivants. Après 2 heures d'incubation, le milieu est enlevé et les cellules sont lavées doucement avec 200 µl de PBS + Ca^2+ + Mg^2+. Les cellules restantes sont ensuite lysées avec 100 µl de SDS et la plaque est mise à 4°C pendant 1 heure pour permettre un relargage complet du colorant. La plaque est ensuite lue au lecteur ELISA à 570 nm avec un filtre de référence de 630 nm après 15 secondes d'agitation. Le blanc de DO est fait sur une colonne de 8 cupules n'ayant reçu que le colorant puis ayant été traitées comme les autres.
# Pour la réalisation de cet essai, AVF1 a été préparé de la façon suivante : 1 g a été dissout dans 5 ml de D-MEM sans rouge de phénol. Cette solution à 20% a été stérilisée sur 0,22 µm (Minisart, Sartorius), le pH contrôlé (7,5), aliquotée sous 1 ml et conservée à +4°C. Au moment de l'emploi, cette solution a été diluée afin d'obtenir les concentrations finales désirées.
# [1] = ROUGE NEUTRE, second experiment, AVF1 1 10^-7 %
# [2] = ROUGE NEUTRE, second experiment, AVF1 1 10^-8 %
# [3] = ROUGE NEUTRE, second experiment, AVF1 1 10^-9 %
# [4] = ROUGE NEUTRE, second experiment, AVF1 1 10^-10 %
# [5] = ROUGE NEUTRE, second experiment, AVF1 5 10^-7 %
# [6] = ROUGE NEUTRE, second experiment, AVF1 5 10^-8 %
# [7] = ROUGE NEUTRE, second experiment, AVF1 5 10^-9 %
# [8] = ROUGE NEUTRE, second experiment, AVF1 5 10^-10 %
# [9] = ROUGE NEUTRE, second experiment, AVF1 10^-6 %
# [10] = VIOLET CRISTAL, second experiment, AVF1 1 10^-7 %
# [11] = VIOLET CRISTAL, second experiment, AVF1 1 10^-8 %
# [12] = VIOLET CRISTAL, second experiment, AVF1 1 10^-9 %
# [13] = VIOLET CRISTAL, second experiment, AVF1 1 10^-10 %
# [14] = VIOLET CRISTAL, second experiment, AVF1 5 10^-7 %
# [15] = VIOLET CRISTAL, second experiment, AVF1 5 10^-8 %
# [16] = VIOLET CRISTAL, second experiment, AVF1 5 10^-9 %
# [17] = VIOLET CRISTAL, second experiment, AVF1 5 10^-10 %
# [18] = VIOLET CRISTAL, second experiment, AVF1 10^-6 %
compound,measurement,setting,value
"CC(C)(C)c1cc(C(=O)OCCOCCOCCOCCOCCOCCOCCOCCO)cc(C(C)(C)C)c1O [AVF1, 3,5-di-t-butyl-4-hydroxybenzoate d'octaoxyéthylèneglycol]",n'est plus toxique à partir de,"RAW 264.7 macrophages after 24 heures de culture, non-toxic from this concentration downwards",≤ 10^-6%
same,DO/ml moyenne sur 4 puis ± écart type,"ROUGE NEUTRE, AVF1 0,5 %",0 DO/ml
same,Pourcentage de survie par rapport au témoin cellules en milieu seul,"ROUGE NEUTRE, AVF1 0,5 %",0%
same,DO/ml moyenne sur 4 puis ± écart type,"ROUGE NEUTRE, AVF1 1 10^-2 %",0 DO/ml
same,Pourcentage de survie par rapport au témoin cellules en milieu seul,"ROUGE NEUTRE, AVF1 1 10^-2 %",6%
same,DO/ml moyenne sur 4 puis ± écart type,"ROUGE NEUTRE, AVF1 1 10^-3 %",0 DO/ml
same,Pourcentage de survie par rapport au témoin cellules en milieu seul,"ROUGE NEUTRE, AVF1 1 10^-3 %",0%
same,DO/ml moyenne sur 4 puis ± écart type,"ROUGE NEUTRE, AVF1 1 10^-4 %","0,010 ± 0,002 DO/ml"
same,Pourcentage de survie par rapport au témoin cellules en milieu seul,"ROUGE NEUTRE, AVF1 1 10^-4 %",1%
same,DO/ml moyenne sur 4 puis ± écart type,"ROUGE NEUTRE, AVF1 1 10^-5 %","0,060 ± 0,034 DO/ml"
same,Pourcentage de survie par rapport au témoin cellules en milieu seul,"ROUGE NEUTRE, AVF1 1 10^-5 %",41%
same,DO/ml moyenne sur 4 puis ± écart type,"ROUGE NEUTRE, AVF1 1 %",0 DO/ml
same,Pourcentage de survie par rapport au témoin cellules en milieu seul,"ROUGE NEUTRE, AVF1 1 %",0%
same,DO/ml moyenne sur 4 puis ± écart type,"ROUGE NEUTRE, AVF1 5 10^-3 %",0 DO/ml
same,Pourcentage de survie par rapport au témoin cellules en milieu seul,"ROUGE NEUTRE, AVF1 5 10^-3 %",3%
same,DO/ml moyenne sur 4 puis ± écart type,"ROUGE NEUTRE, AVF1 5 10^-4 %",0 DO/ml
same,Pourcentage de survie par rapport au témoin cellules en milieu seul,"ROUGE NEUTRE, AVF1 5 10^-4 %",0%
same,DO/ml moyenne sur 4 puis ± écart type,"ROUGE NEUTRE, AVF1 5 10^-5 %","0,023 ± 0,003 DO/ml"
same,Pourcentage de survie par rapport au témoin cellules en milieu seul,"ROUGE NEUTRE, AVF1 5 10^-5 %",16%
same,DO/ml moyenne sur 4 puis ± écart type,"ROUGE NEUTRE, AVF1 5 10^-6 %","0,476 ± 0,034 DO/ml"
same,Pourcentage de survie par rapport au témoin cellules en milieu seul,"ROUGE NEUTRE, AVF1 5 10^-6 %",70%
same,DO/ml moyenne sur 4 puis ± écart type,[1],"0,605 ± 0,024 DO/ml"
same,Pourcentage de survie par rapport au témoin cellules en milieu seul,[1],95%
same,DO/ml moyenne sur 4 puis ± écart type,[2],"0,601 ± 0,121 DO/ml"
same,Pourcentage de survie par rapport au témoin cellules en milieu seul,[2],95%
same,DO/ml moyenne sur 4 puis ± écart type,[3],"0,594 ± 0,083 DO/ml"
same,Pourcentage de survie par rapport au témoin cellules en milieu seul,[3],93%
same,DO/ml moyenne sur 4 puis ± écart type,[4],"0,609 ± 0,053 DO/ml"
same,Pourcentage de survie par rapport au témoin cellules en milieu seul,[4],96%
same,DO/ml moyenne sur 4 puis ± écart type,[5],"0,652 ± 0,089 DO/ml"
same,Pourcentage de survie par rapport au témoin cellules en milieu seul,[5],100%
same,DO/ml moyenne sur 4 puis ± écart type,[6],"0,575 ± 0,040 DO/ml"
same,Pourcentage de survie par rapport au témoin cellules en milieu seul,[6],90%
same,DO/ml moyenne sur 4 puis ± écart type,[7],"0,545 ± 0,015 DO/ml"
same,Pourcentage de survie par rapport au témoin cellules en milieu seul,[7],86%
same,DO/ml moyenne sur 4 puis ± écart type,[8],"0,573 ± 0,030 DO/ml"
same,Pourcentage de survie par rapport au témoin cellules en milieu seul,[8],90%
same,DO/ml moyenne sur 4 puis ± écart type,[9],"0,602 ± 0,059 DO/ml"
same,Pourcentage de survie par rapport au témoin cellules en milieu seul,[9],95%
same,DO/ml moyenne sur 4 puis ± écart type,"VIOLET CRISTAL, AVF1 0,5 %","0,118 ± 0,027 DO/ml"
same,Pourcentage de survie par rapport au témoin cellules en milieu seul,"VIOLET CRISTAL, AVF1 0,5 %",6%
same,DO/ml moyenne sur 4 puis ± écart type,"VIOLET CRISTAL, AVF1 1 10^-2 %","0,118 ± 0,027 DO/ml"
same,Pourcentage de survie par rapport au témoin cellules en milieu seul,"VIOLET CRISTAL, AVF1 1 10^-2 %",6%
same,DO/ml moyenne sur 4 puis ± écart type,"VIOLET CRISTAL, AVF1 1 10^-3 %","0,117 ± 0,027 DO/ml"
same,Pourcentage de survie par rapport au témoin cellules en milieu seul,"VIOLET CRISTAL, AVF1 1 10^-3 %",8%
same,DO/ml moyenne sur 4 puis ± écart type,"VIOLET CRISTAL, AVF1 1 10^-4 %","0,180 ± 0,016 DO/ml"
same,Pourcentage de survie par rapport au témoin cellules en milieu seul,"VIOLET CRISTAL, AVF1 1 10^-4 %",9%
same,DO/ml moyenne sur 4 puis ± écart type,"VIOLET CRISTAL, AVF1 1 10^-5 %","0,259 ± 0,033 DO/ml"
same,Pourcentage de survie par rapport au témoin cellules en milieu seul,"VIOLET CRISTAL, AVF1 1 10^-5 %",12%
same,DO/ml moyenne sur 4 puis ± écart type,"VIOLET CRISTAL, AVF1 1 %","0,172 ± 0,030 DO/ml"
same,Pourcentage de survie par rapport au témoin cellules en milieu seul,"VIOLET CRISTAL, AVF1 1 %",8%
same,DO/ml moyenne sur 4 puis ± écart type,"VIOLET CRISTAL, AVF1 5 10^-3 %","0,061 ± 0,017 DO/ml"
same,Pourcentage de survie par rapport au témoin cellules en milieu seul,"VIOLET CRISTAL, AVF1 5 10^-3 %",3%
same,DO/ml moyenne sur 4 puis ± écart type,"VIOLET CRISTAL, AVF1 5 10^-4 %","0,156 ± 0,010 DO/ml"
same,Pourcentage de survie par rapport au témoin cellules en milieu seul,"VIOLET CRISTAL, AVF1 5 10^-4 %",7%
same,DO/ml moyenne sur 4 puis ± écart type,"VIOLET CRISTAL, AVF1 5 10^-5 %","0,216 ± 0,034 DO/ml"
same,Pourcentage de survie par rapport au témoin cellules en milieu seul,"VIOLET CRISTAL, AVF1 5 10^-5 %",10%
same,DO/ml moyenne sur 4 puis ± écart type,"VIOLET CRISTAL, AVF1 5 10^-6 %","1,129 ± 0,069 DO/ml"
same,Pourcentage de survie par rapport au témoin cellules en milieu seul,"VIOLET CRISTAL, AVF1 5 10^-6 %",54%
same,DO/ml moyenne sur 4 puis ± écart type,[10],"0,960 ± 0,070 DO/ml"
same,Pourcentage de survie par rapport au témoin cellules en milieu seul,[10],86%
same,DO/ml moyenne sur 4 puis ± écart type,[11],"1,128 ± 0,043 DO/ml"
same,Pourcentage de survie par rapport au témoin cellules en milieu seul,[11],100%
same,DO/ml moyenne sur 4 puis ± écart type,[12],"1,010 ± 0,059 DO/ml"
same,Pourcentage de survie par rapport au témoin cellules en milieu seul,[12],91%
same,DO/ml moyenne sur 4 puis ± écart type,[13],"0,934 ± 0,050 DO/ml"
same,Pourcentage de survie par rapport au témoin cellules en milieu seul,[13],84%
same,DO/ml moyenne sur 4 puis ± écart type,[14],"1,051 ± 0,041 DO/ml"
same,Pourcentage de survie par rapport au témoin cellules en milieu seul,[14],94%
same,DO/ml moyenne sur 4 puis ± écart type,[15],"1,089 ± 0,051 DO/ml"
same,Pourcentage de survie par rapport au témoin cellules en milieu seul,[15],98%
same,DO/ml moyenne sur 4 puis ± écart type,[16],"0,970 ± 0,062 DO/ml"
same,Pourcentage de survie par rapport au témoin cellules en milieu seul,[16],87%
same,DO/ml moyenne sur 4 puis ± écart type,[17],"1,000 ± 0,089 DO/ml"
same,Pourcentage de survie par rapport au témoin cellules en milieu seul,[17],90%
same,DO/ml moyenne sur 4 puis ± écart type,[18],"0,991 ± 0,078 DO/ml"
same,Pourcentage de survie par rapport au témoin cellules en milieu seul,[18],89%
same,toxique jusqu'à la concentration de,"conclusion of first toxicity experiment (Tableaux III, IV), toxic down to this concentration",≥ 5 x 10^-5%
same,hautement toxique jusqu'à,conversion of 10^-5 %,~100 nM
same,hautement toxique jusqu'à,toxic down to this concentration,≥ 10^-5%
